Laboratory results published in US12655116B2, “Substituted isophthalic acid diamides” (Bayer Aktiengesellschaft, priority 2020, dated 2026).

How the values were obtained:
DIGSA [1] = assay: Pre-emergence herbicidal action against DIGSA; type: in vivo, Digitaria sanguinalis
Summary of the method: (§1)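 Seeds sown in sandy loam, soil-covered; compound sprayed on soil surface pre-emergence. Application: WP/EC, 600–800 l/ha, 0.2% wetting agent. Readout: visual % damage at 3 weeks.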

STEME [2] = assay: Pre-emergence herbicidal action against STEME; type: in vivo, Stellaria media
Summary of the method: as §1

AVEFA = assay: Pre-emergence herbicidal action against AVEFA; type: in vivo, Avena fatua; settings: pre-emergence
Summary of the method: as §1

PHBPU [3] = assay: Post-emergence herbicidal action against PHBPU; type: in vivo, Pharbitis purpurea; settings: dosage 20 g/ha
Summary of the method: (§2)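 Sandy loam, greenhouse; treatment 2–3 weeks after sowing, one-leaf stage. Aqueous suspension or emulsion from WP/EC sprayed on foliage (600–800 l/ha, 0.2% wetting agent). Readout: visual % action, ~3 weeks.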

VIOTR [4] = assay: Pre-emergence herbicidal action against VIOTR; type: in vivo, Viola tricolor
Summary of the method: as §1

MATIN [5] = assay: Pre-emergence herbicidal action against MATIN; type: in vivo, Matricaria inodora
Summary of the method: as §1

ALOMY [6] = assay: Pre-emergence herbicidal action against ALOMY; type: in vivo, Alopecurus myosuroides; settings: pre-emergence
Summary of the method: as §1

HORMU = assay: Pre-emergence herbicidal action against HORMU; type: in vivo, Hordeum murinum; settings: 80 g/ha, pre-emergence
Summary of the method: as §1

MATIN [7] = assay: Post-emergence herbicidal action against MATIN; type: in vivo, Matricaria inodora; settings: Tripleurospermum inodorum, 504 h
Summary of the method: as §2

ABUTH [8] = assay: Pre-emergence herbicidal action against ABUTH; type: in vivo, Abutilon theophrasti
Summary of the method: as §1

SETVI [9] = assay: Post-emergence herbicidal action against SETVI; type: in vivo, Setaria viridis
Summary of the method: as §2

STEME [10] = assay: Post-emergence herbicidal action against STEME; type: in vivo, Stellaria media
Summary of the method: as §2

ABUTH [11] = assay: Post-emergence herbicidal action against ABUTH; type: in vivo, Abutilon theophrasti; settings: visual assessment about 3 weeks after treatment vs untreated controls
Summary of the method: as §2

POLCO [12] = assay: Pre-emergence herbicidal action against POLCO; type: in vivo, Polygonum convolvulus; settings: dosage 80 g/ha
Summary of the method: as §1

ECHCG [13] = assay: Post-emergence herbicidal action against ECHCG; type: in vivo, Echinochloa crus-galli
Summary of the method: as §2

AMARE [14] = assay: Post-emergence herbicidal action against AMARE; type: in vivo, Amaranthus retroflexus; settings: 20 g/ha, visual assessment about 3 weeks after treatment, 100% = plants have died, 0% = like control plants
Summary of the method: as §2

POLCO [15] = assay: Post-emergence herbicidal action against POLCO; type: in vivo, Polygonum convolvulus; settings: dosage 20 g/ha
Summary of the method: as §2

ALOMY [16] = assay: Post-emergence herbicidal action against ALOMY; type: in vivo, Alopecurus myosuroides; settings: Alopecurus myosuroides, 504 h, dosage 20 g/ha, visual assessment about 3 weeks after treatment vs untreated controls
Summary of the method: as §2

SETVI [17] = assay: Pre-emergence herbicidal action against SETVI; type: in vivo, Setaria viridis; settings: dosage 80 g/ha
Summary of the method: as §1

VERPE = assay: Pre-emergence herbicidal action against VERPE; type: in vivo, Veronica persica; settings: Veronica persica, 504 h, dosage 80 g/ha
Summary of the method: as §1

LOLRI = assay: Pre-emergence herbicidal action against LOLRI; type: in vivo, Lolium rigidum; settings: Lolium rigidum, 504 h, 80 g/ha
Summary of the method: as §1

PHBPU [18] = assay: Pre-emergence herbicidal action against PHBPU; type: in vivo, Pharbitis purpurea; settings: Ipomoea purpurea, 504 h, dosage 80 g/ha
Summary of the method: as §1

AMARE [19] = assay: Pre-emergence herbicidal action against AMARE; type: in vivo, Amaranthus retroflexus
Summary of the method: as §1

DIGSA [20] = assay: Post-emergence herbicidal action against DIGSA; type: in vivo, Digitaria sanguinalis
Summary of the method: as §2

ECHCG [21] = assay: Pre-emergence herbicidal action against ECHCG; type: in vivo, Echinochloa crus-galli; settings: 80 g/ha
Summary of the method: as §1

VIOTR [22] = assay: Post-emergence herbicidal action against VIOTR; type: in vivo, Viola tricolor
Summary of the method: as §2

[23] = 80 g/ha, scored visually after 3 weeks vs untreated controls (100% = plants have died, 0% = like control plants)

CCn1nnnc1NC(=O)c1ccc(C(F)F)c(C(=O)NC2CC2)c1Cl [Example 2-149]
pest or weed control at 20 g/ha (DIGSA [1]; Digitaria sanguinalis, 504 h, dosage 20 g/ha): 90%
pest or weed control at 80 g/ha (DIGSA [1]; Digitaria sanguinalis, 504 h, dosage 80 g/ha): 100%
pest or weed control at 20 g/ha (STEME [2]; Stellaria media, 504 h, dosage 20 g/ha): 100%
pest or weed control at 80 g/ha (STEME [2]; Stellaria media, 504 h, dosage 80 g/ha): 100%
pest or weed control at 80 g/ha (AVEFA; Avena fatua, 504 h, 80 g/ha): 100%
pest or weed control at 20 g/ha (AVEFA; Avena fatua, 504 h, 20 g/ha, scored visually after 3 weeks, 100% = plants have died, 0% = like control plants): 80%
pest or weed control at 20 g/ha (PHBPU [3]; Ipomoea purpurea, 504 h): 90%
pest or weed control at 20 g/ha (VIOTR [4]; Viola tricolor, 504 h, dosage 20 g/ha): 100%
pest or weed control at 80 g/ha (VIOTR [4]; Viola tricolor, 504 h, dosage 80 g/ha): 100%
pest or weed control at 20 g/ha (MATIN [5]; Tripleurospermum inodorum, 504 h, dosage 20 g/ha): 90%
pest or weed control at 80 g/ha (MATIN [5]; Tripleurospermum inodorum, 504 h, dosage 80 g/ha): 100%
pest or weed control at 80 g/ha (ALOMY [6]; Alopecurus myosuroides, 504 h, 80 g/ha, scored visually after 3 weeks vs untreated controls (100% = plants have died, 0% = like control plants)): 90%
pest or weed control at 20 g/ha (ALOMY [6]; Alopecurus myosuroides, 504 h, 20 g/ha, scored visually after 3 weeks, 100% = plants have died, 0% = like control plants): 80%
pest or weed control at 80 g/ha (HORMU; Hordeum murinum, 504 h): 90%
pest or weed control at 5 g/ha (MATIN [7]; dosage 5 g/ha): 90%
pest or weed control at 20 g/ha (MATIN [7]; dosage 20 g/ha): 100%
pest or weed control at 80 g/ha (ABUTH [8]; Abutilon theophrasti, 504 h, 80 g/ha, scored visually after 3 weeks vs untreated controls (100% = plants have died, 0% = like control plants)): 100%
pest or weed control at 20 g/ha (ABUTH [8]; Abutilon theophrasti, 504 h, dosage 20 g/ha, scored visually after 3 weeks vs untreated controls, 100% = plants have died, 0% = like control plants, read-out: Pre-emergence action against ABUTH (herbicidal activity in percent)): 100%
pest or weed control at 5 g/ha (SETVI [9]; Setaria viridis, 504 h, dosage 5 g/ha): 90%
pest or weed control at 20 g/ha (SETVI [9]; Setaria viridis, 504 h, dosage 20 g/ha): 100%
pest or weed control at 20 g/ha (STEME [10]; Stellaria media, 504 h, 20 g/ha): 90%
pest or weed control at 5 g/ha (STEME [10]; Stellaria media, 504 h, dosage 5 g/ha): 90%
pest or weed control at 5 g/ha (ABUTH [11]; Abutilon theophrasti, 504 h, dosage 5 g/ha): 80%
pest or weed control at 20 g/ha (ABUTH [11]; Abutilon theophrasti, 504 h, dosage 20 g/ha): 100%
pest or weed control at 80 g/ha (POLCO [12]; Fallopia convolvulus, 504 h): 100%
pest or weed control at 20 g/ha (ECHCG [13]; Echinochloa crus-galli, 504 h, dosage 20 g/ha): 80%
pest or weed control at 20 g/ha (AMARE [14]; Amaranthus retroflexus, 504 h): 100%
pest or weed control at 20 g/ha (POLCO [15]; Fallopia convolvulus, 504 h): 80%
pest or weed control at 20 g/ha (ALOMY [16]): 80%
pest or weed control at 80 g/ha (SETVI [17]; Setaria viridis, 504 h): 100%
pest or weed control at 80 g/ha (VERPE): 80%
pest or weed control at 80 g/ha (LOLRI): 90%
pest or weed control at 80 g/ha (PHBPU [18]): 80%
pest or weed control at 20 g/ha (AMARE [19]; Amaranthus retroflexus, 504 h, 20 g/ha, scored visually after 3 weeks vs untreated controls, 100% = plants have died, 0% = like control plants): 100%
pest or weed control at 80 g/ha (AMARE [19]; Amaranthus retroflexus, 504 h, 80 g/ha, scored visually after 3 weeks vs untreated controls, 100% = plants have died, 0% = like control plants): 100%
pest or weed control at 5 g/ha (DIGSA [20]; Digitaria sanguinalis, 504 h, 5 g/ha): 100%
pest or weed control at 20 g/ha (DIGSA [20]; Digitaria sanguinalis, 504 h, 20 g/ha): 100%
pest or weed control at 80 g/ha (ECHCG [21]; Echinochloa crus-galli, 504 h): 90%
pest or weed control at 5 g/ha (VIOTR [22]; Viola tricolor, 504 h, 5 g/ha): 100%
pest or weed control at 20 g/ha (VIOTR [22]; Viola tricolor, 504 h, 20 g/ha): 100%

CCNC(=O)c1c(C(F)(F)F)ccc(C(=O)Nc2nnc(C)o2)c1C [Example 6-26]
Pre-emergence action against DIGSA in % (DIGSA [1]; dosage 20 g/ha): 100%
Pre-emergence action against DIGSA in % (DIGSA [1]; dosage 80 g/ha): 100%
Pre-emergence action against STEME in % (STEME [2]; dosage 20 g/ha): 80%
Pre-emergence action against STEME in % (STEME [2]; dosage 80 g/ha): 100%
Pre-emergence action against AVEFA in % (AVEFA; 80 g/ha): 80%
Post-emergence action against PHBPU in % (PHBPU [3]): 80%
Pre-emergence action against VIOTR in % (VIOTR [4]; dosage 80 g/ha): 100%
Pre-emergence action against MATIN in % (MATIN [5]; dosage 20 g/ha): 80%
Pre-emergence action against MATIN in % (MATIN [5]; dosage 80 g/ha): 90%
Pre-emergence action against ALOMY (herbicidal activity) (ALOMY [6]; [23]): 80%
Pre-emergence action against HORMU in % (HORMU): 80%
Pre-emergence action against ABUTH (herbicidal activity) (ABUTH [8]; [23]): 100%
Pre-emergence action against ABUTH (herbicidal activity in percent) (ABUTH [8]; dosage 20 g/ha, scored visually after 3 weeks vs untreated controls, 100% = plants have died, 0% = like control plants): 100%
Post-emergence action against SETVI in % (SETVI [9]; dosage 20 g/ha): 80%
Post-emergence action against STEME in % (STEME [10]; 20 g/ha): 80%
Post-emergence action against ABUTH in % (ABUTH [11]; dosage 5 g/ha): 90%
Post-emergence action against ABUTH in % (ABUTH [11]; dosage 20 g/ha): 90%
Pre-emergence action against POLCO in % (POLCO [12]): 100%
Post-emergence action against ECHCG in % (ECHCG [13]; dosage 5 g/ha): 80%
Post-emergence action against ECHCG in % (ECHCG [13]; dosage 20 g/ha): 90%
Post-emergence action at 20 g/ha against AMARE in % (AMARE [14]): 100%
Post-emergence action against POLCO in % (POLCO [15]): 80%
Pre-emergence action against SETVI in % (SETVI [17]): 100%
Pre-emergence action against AMARE in % (AMARE [19]; 20 g/ha, scored visually after 3 weeks vs untreated controls, 100% = plants have died, 0% = like control plants): 100%
Pre-emergence action against AMARE in % (AMARE [19]; [23]): 100%
Post-emergence action against DIGSA in % (DIGSA [20]; 5 g/ha): 90%
Post-emergence action against DIGSA (DIGSA [20]; 20 g/ha): 90%
Pre-emergence action against ECHCG in % (ECHCG [21]): 100%
Post-emergence action against VIOTR in % (VIOTR [22]; 20 g/ha): 100%
